Test results taken from PubChem BioAssay (NCI).
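Compound exposure: 48 hours, 5 concentrations, 96-well plates. GI50: concentration for 50% inhibition of growth. TGI is the concentration that stops growth completely.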

Legend:
Test in all cases: inhibition of tumour cell growth, NCI panel, 48 h
HCC-2998 colon = test system: HCC-2998 colon
HCT-15 colon = test system: HCT-15 colon
OVCAR-8 ovarian = test system: OVCAR-8 ovarian
UACC-257 melanoma = test system: UACC-257 melanoma
T-47D breast = test system: T-47D breast
HOP-62 NSCLC = test system: HOP-62 NSCLC
PC-3 prostate = test system: PC-3 prostate
NCI/ADR-RES ovarian = test system: NCI/ADR-RES ovarian
786-0 renal = test system: 786-0 renal
OVCAR-4 ovarian = test system: OVCAR-4 ovarian
U251 CNS = test system: U251 CNS
A498 renal = test system: A498 renal
CCRF-CEM leukemia = test system: CCRF-CEM leukemia
M14 melanoma = test system: M14 melanoma
SR leukemia = test system: SR leukemia

Row | SMILES | TGI (HCC-2998 colon) | TGI (HCT-15 colon) | TGI (OVCAR-8 ovarian) | TGI (UACC-257 melanoma) | TGI (T-47D breast) | TGI (HOP-62 NSCLC) | TGI (PC-3 prostate) | TGI (NCI/ADR-RES ovarian) | TGI (786-0 renal) | TGI (OVCAR-4 ovarian) | TGI (U251 CNS) | TGI (A498 renal) | TGI (CCRF-CEM leukemia) | TGI (M14 melanoma) | TGI (SR leukemia) | GI50 (HCC-2998 colon) | GI50 (A498 renal)
1 | CC1=C(S(=O)c2ccc(C)cc2)CCC2(CCCCO2)O1 (stereo not given) | > 100 µM | > 100 µM | > 100 µM | > 100 µM | > 100 µM | > 100 µM | > 100 µM | > 100 µM | > 100 µM | > 100 µM | > 100 µM | > 100 µM | – | – | – | – | –
2 | CC(C)(C)c1cc(Oc2ccc(C#N)c(C#N)c2)cc(C(C)(C)C)c1 | > 100 µM | > 100 µM | > 100 µM | > 100 µM | – | > 100 µM | – | – | > 100 µM | > 100 µM | > 100 µM | > 100 µM | > 100 µM | > 100 µM | 42.3 µM | – | –
3 | CC1C2CC(CC2O)C1(C)C (stereo not given) | – | – | > 100 µM | > 100 µM | > 100 µM | > 100 µM | > 100 µM | – | > 100 µM | > 100 µM | > 100 µM | > 100 µM | > 100 µM | > 100 µM | > 100 µM | – | –
4 | Cc1ccc(S(=O)(=O)Nn2c(C)cc3ccc(S(=O)(=O)Nc4ccccc4[N+](=O)[O-])cc3c2=O)cc1 | > 100 µM | > 100 µM | > 100 µM | > 100 µM | – | > 100 µM | > 100 µM | > 100 µM | > 100 µM | > 100 µM | > 100 µM | – | > 100 µM | > 100 µM | > 100 µM | – | –
5 | COc1ccccc1NC(=O)CC(=O)n1nc(-c2ccccc2)c(N=Nc2ccccc2[N+](=O)[O-])c1-c1ccccc1 | > 100 µM | – | > 100 µM | > 100 µM | – | > 100 µM | – | – | > 100 µM | > 100 µM | > 100 µM | – | > 100 µM | > 100 µM | > 100 µM | – | –
6 | O=S(=O)(c1ccccc1)n1cnc(CCc2ccccc2)n1 | – | > 100 µM | > 100 µM | > 100 µM | – | > 100 µM | – | – | > 100 µM | > 100 µM | > 100 µM | > 100 µM | > 100 µM | > 100 µM | > 100 µM | – | –
7 | Cc1no[n+]([O-])c1/C=N/NS(=O)(=O)c1ccccc1 | > 100 µM | > 100 µM | > 100 µM | – | – | > 100 µM | – | – | > 100 µM | > 100 µM | > 100 µM | > 100 µM | – | > 100 µM | > 100 µM | – | –
8 | Nc1ncnc2c1ccn2CC=C(CO)CO | > 100 µM | > 100 µM | > 100 µM | > 100 µM | > 100 µM | > 100 µM | > 100 µM | > 100 µM | > 100 µM | > 100 µM | > 100 µM | > 100 µM | > 100 µM | > 100 µM | – | – | –
9 | CC(=O)OCC1=C2C(OC(=O)C(C)C)CC3(COC(C)=O)OC3/C=C\C3(C)OC3C2OC1=O (stereo not given) | > 100 µM | > 100 µM | > 100 µM | > 100 µM | > 100 µM | > 100 µM | > 100 µM | – | > 100 µM | > 100 µM | > 100 µM | > 100 µM | > 100 µM | > 100 µM | > 100 µM | – | –
10 | CN1C(=O)CN=C(c2ccccc2F)c2cc(N=C=S)ccc21 | > 100 µM | > 100 µM | > 100 µM | > 100 µM | > 100 µM | > 100 µM | > 100 µM | > 100 µM | > 100 µM | > 100 µM | > 100 µM | > 100 µM | > 100 µM | > 100 µM | – | – | –
11 | C=C(C)C1Cc2c(cc(OC)c3c(=O)c4ccccc4n(C)c23)O1 (stereo not given) | > 100 µM | > 100 µM | > 100 µM | > 100 µM | – | > 100 µM | – | – | > 100 µM | > 100 µM | > 100 µM | > 100 µM | > 100 µM | > 100 µM | > 100 µM | – | –
12 | COc1ccc(N2C(=O)C(C#N)=C(SC)C(C#N)C2=O)cc1 (stereo not given) | > 100 µM | > 100 µM | > 100 µM | > 100 µM | – | > 100 µM | > 100 µM | > 100 µM | > 100 µM | > 100 µM | > 100 µM | > 100 µM | > 100 µM | > 100 µM | – | – | –
13 | C[N+](C)(C)CC(=O)N/N=C/c1oc(-c2cccc([N+](=O)[O-])c2)c(-c2cccc([N+](=O)[O-])c2)c1[N+](=O)[O-] | > 100 µM | – | > 100 µM | > 100 µM | – | > 100 µM | – | – | > 100 µM | > 100 µM | – | > 100 µM | > 100 µM | > 100 µM | > 100 µM | – | –
14 | CC(C)(C)C(=O)CC(=O)C(F)(F)C(F)(F)C(F)(F)F.CC(C)(C)C(=O)CC(=O)C(F)(F)C(F)(F)C(F)(F)F.CC(C)(C)C(=O)CC(=O)C(F)(F)C(F)(F)C(F)(F)F.[Er] | > 100 µM | – | > 100 µM | – | > 100 µM | > 100 µM | > 100 µM | – | > 100 µM | > 100 µM | > 100 µM | > 100 µM | > 100 µM | > 100 µM | > 100 µM | 43.5 µM | > 100 µM
15 | S=C1NCCN1C(=S)NC1CCCCC1 | 42.3 µM | 89.7 µM | > 100 µM | 63.3 µM | > 100 µM | > 100 µM | – | > 100 µM | > 100 µM | 45.5 µM | > 100 µM | 38.7 µM | > 100 µM | 51.2 µM | > 100 µM | – | –
16 | O=C1CC(NC2CC(=O)c3c(Br)sc(Br)c32)c2c(Br)sc(Br)c21 (stereo not given) | 30.8 µM | 9.2 µM | 10.3 µM | 4.93 µM | 8.25 µM | 12.2 µM | 7.52 µM | > 86.8 µM | 2.9 µM | > 78.1 µM | 3.36 µM | 32.6 µM | 3.17 µM | 11.9 µM | – | – | –
17 | NC(CCC(=O)NC(CSC(=O)N(O)c1ccc(Cl)cc1)C(=O)NCC(=O)O)C(=O)O (stereo not given) | > 0.5 µM | > 0.5 µM | > 0.5 µM | > 0.5 µM | – | > 0.5 µM | > 0.5 µM | > 0.5 µM | > 0.5 µM | > 0.5 µM | > 0.5 µM | – | > 0.5 µM | > 0.5 µM | > 0.5 µM | – | –
18 | CCOC(=O)CCC(NC(=O)c1ccc(OCc2ccc3nc(OC)c(OC)nc3c2)cc1)C(=O)OCC (stereo not given) | > 100 µM | > 100 µM | > 100 µM | > 100 µM | > 100 µM | > 100 µM | > 100 µM | – | > 100 µM | – | > 100 µM | > 100 µM | 93.5 µM | 96.8 µM | > 100 µM | – | –
